This assay concerns the target HCV-NS3/4A protease (Hepacivirus hominis (Hepatitis C virus), UniProt O92972). Description: HCV-NS3/4A protease inhibition, in vitro FRET assay. The class given is biochemical. To be noted: IC50, purified HCV-NS3/4A protease.
Chain of HCV-NS3/4A protease (O92972 1027-1207, other chains not shown): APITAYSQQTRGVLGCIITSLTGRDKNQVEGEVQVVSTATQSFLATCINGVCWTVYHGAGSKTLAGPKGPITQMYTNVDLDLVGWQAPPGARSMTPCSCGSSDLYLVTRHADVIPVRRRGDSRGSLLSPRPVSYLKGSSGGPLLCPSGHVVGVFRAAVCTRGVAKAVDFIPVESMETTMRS
As for `Cn1c(NN)nc2cc3ccccc3cc2c1=O` [Compound 7, 3-Methyl-2-hydrazinylbenzo[g]quinazolin-4(3H)-one], half-maximal inhibition (IC50) was put at 22.3 ± 0.46 µM.

As for `CCn1c(NN)nc2cc3ccccc3cc2c1=O` [Compound 8, 3-Ethyl-2-hydrazinyl-benzo[g]quinazolin-4(3H)-one], the midpoint of inhibition, the IC50, lay at 78.8 ± 1.7 µM.

`Cc1ccc2nc(NN)n(C)c(=O)c2c1` [Compound 14, 3-Methyl-2-hydrazinyl-6-methyl-3H-quinazolin-4-one]: half-maximal inhibition (IC50) was put at 25.5 ± 0.55 µM.

`CCn1c(NN)nc2ccc(C)cc2c1=O` [Compound 15, 3-Ethyl-2-hydrazinyl-6-methyl-3H-quinazolin-4-one]: half-maximal inhibition (IC50) required 178 ± 3.9 µM.

For the origin of these results see PMC9056986 (RSC Advances, 2020).
